The source of these data is paper PMC9570995, “Design, Synthesis, and Biological Evaluation of Novel Dihydropyridine and Pyridine Analogs as Potent Human Tissue Nonspecific Alkaline Phosphatase Inhibitors with Anticancer Activity: ROS and DNA Damage-Induced Apoptosis” (Molecules, 2022).

The structures appear in SMILES notation.

One experiment has as its system Herring sperm DNA. Put plainly: Fluorescence emission titration with DNA. Format: binding. The settings on record: compound 10 µM, DMF/H2O (1:9, v/v). The procedure:
The fluorescence emission studies of compound 4d (10 µM) were accomplished in DMF/H2O (1:9, v/v) before and after the continual addition of DNA (0–50 µg/mL) to probe out the compound-DNA interaction. […] As evident in Figure 8, the fluorescence emission of compound 4d was attenuated by ~55% (calculated through I0/I) upon the maximum addition of 50 µg/mL of DNA. The substantial fluorescence quenching behavior of 4d upon the addition of DNA is perhaps attributed to the efficient binding of the compound to the minor groove of DNA [68]. […] Next, the excellent binding efficiency of compound 4d with DNA was well elucidated through the Stern–Volmer (SV) plot, which was produced between the increased fluorescence quenching efficiency and increasing concentration of DNA solution. […]
Reagent grade solvents were used for purification purposes. Silica gel with 70–230 mesh size and pure solvents were used for the column chromatography. ^1H, ^13C, and DEPT-135 NMR spectra were recorded on a 400 MHz spectrometer using DMSO as the solvent and TMS as the internal standard. The chemical shifts, multiplicity, and coupling constants were calculated from data obtained through the FID file. […] The IC50 and percent inhibition were calculated by using GraphPad software. […] The optical density was measured through a microplate reader at 570 nm. […]

A further experiment concerns HeLa cells. Put plainly: Microscopic evaluation of ROS generation (H2DCF-DA). Type of experiment: cell-based. The settings on record: IC50 and 2 × IC50, versus control. From the text: The production of reactive oxygen species (ROS) has been an extensively researched topic in medicinal chemistry due to their involvement in numerous biochemical phases of health and disease. In a biological system, redox-sensitive fluorogenic materials such as 2′,7′-dichlorodihydrofluorescein-diacetate (DCFH2-DA) are commonly used to investigate the production of ROS during oxidative stress. It easily penetrates through the cell membrane, where esterase enzyme hydrolyzes the acetate group to a more hydrophilic group, which further oxidizes in the cytoplasmic region to give rise to a highly fluorescent product. In this study, the HeLa cells were used to investigate the production of ROS. The non-fluorescent material 2′,7′-dichlorodihydrofluorescein (DCFH2) converts into the fluorescent 2′,7′-dichlorofluorescein (DCF) under intracellular oxidative stress.
The production of reactive oxygen species (ROS) in compound 4d-treated HeLa cells was observed by applying a published protocol with some modifications. Cells at a density of 2 × 10^5 cells/well/mL were grown on round coverslips in a 24-well plate and kept in an incubator having humid 5% CO2 and 95% air at 37 °C. […] Cells were gently washed with PBS to remove excess dye, and images were captured at a magnification of 20× using excitation/emission filters at 488/530 nm with the help of a fluorescence microscope (Nikon ECLIPSE Ni–U).

The test system of another experiment is MCF-7 cells. Put plainly: Cell cycle analysis by flow cytometry (PI). Type of experiment: cell-based. To be noted: 24 h, IC50 and 2 × IC50. From the text: The progression of the cell cycle is started by a cascade of intracellular signaling pathways to drive progression from the G0 phase to the G1 phase. The mammalian cell cycle involves an overexpression of D-type cyclins during the progression from the G0/G1 to the S-phase and eventually contributes to the development of cancer. Progression is controlled by D-type cyclins after binding with cyclin-dependent kinases (CDKs) and negatively controlled by binding to CDK inhibitors. CDK4/6 is involved in the G1/S transition of the cell cycle and has an important role in breast cancer. Retinoblastoma tumor suppressor protein (pRb) is deactivated through a CDK4/6-mediated phosphorylation reaction. In fact, cyclin D1/CDK4/6 is a mandatory controller of pRb phosphorylation. This phosphorylation deactivates the pRb that leads to cell proliferation.
PI was used as a fluorescent probe by flow cytometry through small modifications in a published method. The difference in DNA content between the G0/G1, S (synthesis), and G2/M phases can be compared with a control sample. The assay was conducted by seeding 3 × 10^5 cells/well and incubating them for 24 h in a CO2 incubator at 37 °C. […] After harvesting the cells as directed, these cells were centrifuged at 3000 rpm for 5 min and washed with sterile PBS. […] The obtained results were analyzed by using the BD Accuri^TM C6 and GraphPad Prism 5.01 software.

As to `N#CC1=C(N)N(Cc2ccccc2)C(N)=C(C#N)C1c1ccc2ccccc2c1` [Compound 4d, 2,6-Diamino-1-benzyl-4-(naphthalen-2-yl)-1,4-dihydropyridine-3,5-dicarbonitrile], in the experiment with Herring sperm DNA (DNA 0–50 µg/mL), the “Stern–Volmer constant (Ksv)” value stood at 34100 M⁻¹. In the experiment with Herring sperm DNA (50 µg/mL DNA, emission 410 nm), the “attenuation of fluorescence emission” value is recorded as ~ 55%. Also, the “production of ROS” value in the experiment with HeLa cells is listed as “dose-dependent increase”. Further, the “phase of cell cycle arrest” value in the experiment with MCF-7 cells is reported as “G0/G1 phase”.
